Assays:
Assay type in all cases: functional
Felis catus [1] = test: Evaluated for its relative defibrillating activity in male cats 10 min after injection at concentration 3 mg/Kg
Felis catus [2] = test: Evaluated for its relative defibrillating activity in male cats 10 min after injection at concentration 2 mg/Kg
Felis catus [3] = test: Evaluated for its relative defibrillating activity in male cats 10 min after injection at concentration 1 mg/Kg
Felis catus [4] = test: Evaluated for its relative defibrillating activity in male cats 10 min after injection at concentration 0.5 mg/Kg
Felis catus [5] = test: Evaluated for its relative defibrillating activity in male cats 10 min after injection at 3 mg/Kg
Felis catus [6] = test: Evaluated for its relative defibrillating activity in male cats 10 min after injection at 2 mg/Kg
Felis catus [7] = test: Evaluated for its relative defibrillating activity in male cats 10 min after injection at 1 mg/Kg
Felis catus [8] = test: Evaluated for its relative defibrillating activity in male cats 10 min after injection at 0.5 mg/Kg

Structure (SMILES): CC(C)(C)NCCC(=O)N1c2ccccc2CCc2ccccc21.Cl
- Relative activity (Felis catus [1]): 100%
- Relative activity (Felis catus [2]): 100%
- Relative activity (Felis catus [3]): 50%

Structure (SMILES): CC(C)NC[C@H](O)CN1c2ccccc2CCc2ccccc21.Cl
- Relative activity (Felis catus [2]): 100%
- Relative activity (Felis catus [4]): 75%
- Relative activity (Felis catus [3]): 100%

Structure (SMILES): CC(C)CNCCC(=O)N1c2ccccc2CCc2ccccc21.Cl
- Relative activity (Felis catus [1]): 0%
- Relative activity (Felis catus [2]): 0%
- Relative activity (Felis catus [3]): 0%

Structure (SMILES): CNCCC(=O)N1c2ccccc2NC(=O)c2ccccc21.Cl
- Relative activity (Felis catus [1]): 0%
- Relative activity (Felis catus [2]): 0%
- Relative activity (Felis catus [3]): 0%

Structure (SMILES): CC(C)NCC(O)CN1c2ccccc2CCc2ccccc21.Cl (configuration not stated)
- Relative activity (Felis catus [1]): 100%
- Relative activity (Felis catus [2]): 100%
- Relative activity (Felis catus [4]): 50%
- Relative activity (Felis catus [3]): 50%

Structure (SMILES): CCNCCC(=O)N1c2ccccc2NC(=O)c2ccccc21.Cl
- Relative activity (Felis catus [1]): 0%
- Relative activity (Felis catus [2]): 0%

Structure (SMILES): CC(C)NCCC(=O)N1c2ccccc2NC(=O)c2ccccc21.Cl
- Relative activity (Felis catus [1]): 0%
- Relative activity (Felis catus [2]): 0%

Structure (SMILES): CNCCC(=O)N1c2ccccc2CCc2ccccc21.Cl
- Relative activity (Felis catus [5]): 100%
- Relative activity (Felis catus [6]): 100%
- Relative activity (Felis catus [7]): 25%
- Relative activity (Felis catus [8]): 0%

Structure (SMILES): CC(C)NCCC(=O)N1c2ccccc2CCc2ccccc21.Cl
- Relative activity (Felis catus [5]): 100%
- Relative activity (Felis catus [2]): 100%
- Relative activity (Felis catus [4]): 25%
- Relative activity (Felis catus [3]): 75%

Structure (SMILES): CC(C)NC[C@@H](O)CN1c2ccccc2CCc2ccccc21.Cl
- Relative activity (Felis catus [2]): 100%
- Relative activity (Felis catus [4]): 50%
- Relative activity (Felis catus [3]): 50%

Structure (SMILES): Cl.O=C(CCNCc1ccccc1)N1c2ccccc2CCc2ccccc21
- Relative activity (Felis catus [1]): 0%
- Relative activity (Felis catus [2]): 0%
- Relative activity (Felis catus [3]): 0%

Structure (SMILES): CCC(C)NCCC(=O)N1c2ccccc2CCc2ccccc21.Cl (configuration not stated)
- Relative activity (Felis catus [1]): 0%
- Relative activity (Felis catus [2]): 0%
- Relative activity (Felis catus [3]): 0%

Structure (SMILES): CCNCCC(=O)N1c2ccccc2CCc2ccccc21.Cl
- Relative activity (Felis catus [5]): 100%
- Relative activity (Felis catus [6]): 75%
- Relative activity (Felis catus [7]): 50%
- Relative activity (Felis catus [8]): 0%

Structure (SMILES): CNCCCN1c2ccccc2CCc2ccccc21 [DESIPRAMINE]
- Relative activity (Felis catus [1]): 100%
- Relative activity (Felis catus [2]): 75%
- Relative activity (Felis catus [3]): 25%

Structure (SMILES): CN(C)CCCN1c2ccccc2CCc2ccccc21 [IMIPRAMINE]
- Relative activity (Felis catus [1]): 75%
- Relative activity (Felis catus [2]): 50%
- Relative activity (Felis catus [3]): 0%
